Measurements reported in PubChem BioAssay (NCI).
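In this assay, cells in 96-well plates receive the compound at five concentrations for 48 hours. Endpoints are linearly interpolated between the surrounding concentrations. TGI marks complete inhibition of growth.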

What was measured:
Assay in all cases: NCI tumour cell line growth inhibition, 48 h
A498 renal = tested on: A498 renal
A549 NSCLC = tested on: A549 NSCLC
CAKI-1 renal = tested on: CAKI-1 renal
CCRF-CEM leukemia = tested on: CCRF-CEM leukemia
COLO 205 colon = tested on: COLO 205 colon
DLD-1 colon = tested on: DLD-1 colon
DMS 114 small cell lung = tested on: DMS 114 small cell lung
DMS 273 small cell lung = tested on: DMS 273 small cell lung
EKVX NSCLC = tested on: EKVX NSCLC
HCC-2998 colon = tested on: HCC-2998 colon
HCT-116 colon = tested on: HCT-116 colon
HCT-15 colon = tested on: HCT-15 colon
HL-60(TB) leukemia = tested on: HL-60(TB) leukemia
HOP-18 NSCLC = tested on: HOP-18 NSCLC
HOP-62 NSCLC = tested on: HOP-62 NSCLC
HOP-92 NSCLC = tested on: HOP-92 NSCLC
HT29 colon = tested on: HT29 colon
IGROV1 ovarian = tested on: IGROV1 ovarian
K-562 leukemia = tested on: K-562 leukemia
KM12 colon = tested on: KM12 colon
KM20L2 colon = tested on: KM20L2 colon
LOX IMVI melanoma = tested on: LOX IMVI melanoma
M19-MEL melanoma = tested on: M19-MEL melanoma
MALME-3M melanoma = tested on: MALME-3M melanoma
MCF7 breast = tested on: MCF7 breast
MOLT-4 leukemia = tested on: MOLT-4 leukemia
NCI-H226 lung = tested on: NCI-H226 lung
NCI-H23 lung = tested on: NCI-H23 lung
NCI-H460 lung = tested on: NCI-H460 lung
NCI-H522 lung = tested on: NCI-H522 lung
NCI/ADR-RES ovarian = tested on: NCI/ADR-RES ovarian
OVCAR-3 ovarian = tested on: OVCAR-3 ovarian
OVCAR-4 ovarian = tested on: OVCAR-4 ovarian
OVCAR-5 ovarian = tested on: OVCAR-5 ovarian
OVCAR-8 ovarian = tested on: OVCAR-8 ovarian
P388 leukemia = tested on: P388 leukemia
P388/ADR leukemia = tested on: P388/ADR leukemia
RPMI-8226 leukemia = tested on: RPMI-8226 leukemia
RXF 393 renal = tested on: RXF 393 renal
SF-268 CNS = tested on: SF-268 CNS
SF-295 CNS = tested on: SF-295 CNS
SF-539 CNS = tested on: SF-539 CNS
SK-MEL-2 melanoma = tested on: SK-MEL-2 melanoma
SK-MEL-28 melanoma = tested on: SK-MEL-28 melanoma
SK-MEL-5 melanoma = tested on: SK-MEL-5 melanoma
SK-OV-3 ovarian = tested on: SK-OV-3 ovarian
SN12C renal = tested on: SN12C renal
SN12K1 renal = tested on: SN12K1 renal
SNB-19 CNS = tested on: SNB-19 CNS
SNB-75 CNS = tested on: SNB-75 CNS
SNB-78 CNS = tested on: SNB-78 CNS
SW-620 colon = tested on: SW-620 colon
U251 CNS = tested on: U251 CNS
UACC-257 melanoma = tested on: UACC-257 melanoma
UACC-62 melanoma = tested on: UACC-62 melanoma
UO-31 renal = tested on: UO-31 renal
XF 498 CNS = tested on: XF 498 CNS

Compound: N=[N+]=CC(=O)CCC(NC(=O)C(CCC(=O)C=[N+]=N)NC(=O)CCC(N)C(=O)O)C(=O)O (configuration not stated)
- TGI (A498 renal): > 100 µM
- TGI (A549 NSCLC): > 100 µM
- TGI (CAKI-1 renal): > 100 µM
- TGI (CCRF-CEM leukemia): > 100 µM
- TGI (COLO 205 colon): > 100 µM
- TGI (DLD-1 colon): > 100 µM
- TGI (DMS 114 small cell lung): > 100 µM
- TGI (DMS 273 small cell lung): > 100 µM
- TGI (EKVX NSCLC): > 100 µM
- TGI (HCC-2998 colon): > 100 µM
- TGI (HCT-116 colon): > 100 µM
- TGI (HCT-15 colon): > 100 µM
- TGI (HL-60(TB) leukemia): > 100 µM
- TGI (HOP-18 NSCLC): > 100 µM
- TGI (HOP-62 NSCLC): > 100 µM
- TGI (HOP-92 NSCLC): > 100 µM
- TGI (HT29 colon): > 100 µM
- TGI (IGROV1 ovarian): > 100 µM
- TGI (K-562 leukemia): > 100 µM
- TGI (KM12 colon): > 31.6 µM
- TGI (KM20L2 colon): > 100 µM
- TGI (LOX IMVI melanoma): > 100 µM
- TGI (M19-MEL melanoma): > 100 µM
- TGI (MALME-3M melanoma): > 100 µM
- TGI (MCF7 breast): > 100 µM
- TGI (MOLT-4 leukemia): > 100 µM
- TGI (NCI-H226 lung): > 100 µM
- TGI (NCI-H23 lung): > 100 µM
- TGI (NCI-H460 lung): > 100 µM
- TGI (NCI-H522 lung): > 100 µM
- TGI (NCI/ADR-RES ovarian): > 100 µM
- TGI (OVCAR-3 ovarian): > 100 µM
- TGI (OVCAR-4 ovarian): > 100 µM
- TGI (OVCAR-5 ovarian): > 100 µM
- TGI (OVCAR-8 ovarian): > 100 µM
- TGI (P388 leukemia): > 100 µM
- TGI (P388/ADR leukemia): > 100 µM
- TGI (RPMI-8226 leukemia): > 100 µM
- TGI (RXF 393 renal): > 100 µM
- TGI (SF-268 CNS): > 100 µM
- TGI (SF-295 CNS): > 100 µM
- TGI (SF-539 CNS): > 100 µM
- TGI (SK-MEL-2 melanoma): > 100 µM
- TGI (SK-MEL-28 melanoma): > 100 µM
- TGI (SK-MEL-5 melanoma): > 100 µM
- TGI (SK-OV-3 ovarian): > 100 µM
- TGI (SN12C renal): > 100 µM
- TGI (SN12K1 renal): > 100 µM
- TGI (SNB-19 CNS): > 100 µM
- TGI (SNB-75 CNS): > 100 µM
- TGI (SNB-78 CNS): > 100 µM
- TGI (SW-620 colon): > 100 µM
- TGI (U251 CNS): > 100 µM
- TGI (UACC-257 melanoma): > 100 µM
- TGI (UACC-62 melanoma): > 100 µM
- TGI (UO-31 renal): > 100 µM
- TGI (XF 498 CNS): > 100 µM
